# Laboratory results as given in US10487115B2, “Proteinaceous compounds and uses therefor” (UNIVERSITY OF CANBERRA, priority 2016, dated 2019).
# Ends that are not written are not given here. * marks the point of attachment. Myristoyl = CCCCCCCCCCCCCC(=O)*
# Legend:
# [1] = test system: cancer stem cell markers (CSV, LSD1p, PKC-θ and PDL1); assay: Expression of cancer stem cell markers in MDA-MB-231 xenograft cells (confocal microscopy, TNFI/TCFI); format: in vivo, Balb-c nude mice; settings: importinib4759 40 mg/kg, docetaxel 4 mg/kg
# Description: The effect of Importinib4759 on the expression of cancer stem cell markers in MDA-MB-231 xenograft breast cancer cells from Balb-c nude mice was evaluated using confocal laser scanning microscopy.
# MDA-MB-231 xenograft breast cancer cells from Balb-c nude mice were treated and prepared as per the method of Example 7. Test compounds included control (saline), docetaxel (4 mg/kg), importinib4759 (40 mg/kg; synthesized in accordance with Example 1) or a combination of importinib4759 (40 mg/kg) and docetaxel (4 mg/kg). The single cell suspensions were fixed with 3.7% formaldehyde and permeabilized with 2% Triton-X-100 and were then probed with primary mouse antibodies to CSV, primary goat antibodies to PDL1 and primary rabbit antibodies to phosphorylated LSD1 (LSD1p; lysine-specific histone demethylase 1A) or PKC-θ followed by the corresponding secondary antibody conjugated to anti mouse Alexa-Fluor 568, anti-goat Alexa-Fluor 633 or anti-rabbit Alexa-Fluor 488. The cell nucleus was stained with anti-fade DAPI. TNFI (Total Nuclear Fluorescence Intensity) or TCFI (Total Cytoplasmic Fluorescence Intensity) values were calculated for at least 20 individual cells per sample. Data shown represent the mean±SE grouped into time point of collection.
# [2] = test system: CAF markers (FAP, LSD1 and CCL2); assay: Expression of CAF markers in MDA-MB-231 xenograft cells (confocal microscopy, TNFI/TCFI); format: in vivo, Balb-c nude mice; settings: importinib4759 40 mg/kg, docetaxel 4 mg/kg
# Description: (§1) The effect of Importinib4759 on the expression of cancer associated fibroblast (CAF) and macrophage in MDA-MB-231 xenograft breast cancer cells from Balb-c nude mice was evaluated using confocal laser scanning microscopy. MDA-MB-231 xenograft breast cancer cells from Balb-c nude mice were treated and prepared as per the method of Example 7. Test compounds included control (saline), docetaxel (4 mg/kg), importinib4759 (40 mg/kg; synthesized in accordance with Example 1) or a combination of importinib4759 (40 mg/kg) and docetaxel (4 mg/kg). The single cell suspensions were fixed with 3.7% formaldehyde and permeabilized with 2% Triton-X-100 and were then probed with a set of CAF signature antibodies [primary mouse antibodies to FAP (fibroblast activation protein), primary goat antibodies to CCL2 (chemokine (C-C motif) ligand 2) and primary rabbit antibodies to LSD1 (lysine-specific histone demethylase 1A; a target of PKC-θ)] or M1 macrophage markers [primary mouse antibodies to CCR[…] chemokine receptor type 7), primary goat antibodies to CD38 (cluster of differentiation 38) and primary rabbit antibodies to LSD1p (a target of PKC-θ)], followed by the corresponding secondary antibody conjugated to anti mouse Alexa-Fluor 568, anti-goat Alexa-Fluor 633 or anti-rabbit Alexa-Fluor 488. […] TNFI or TCFI values were calculated for at least 20 individual cells per sample. […]
# [3] = test system: M1 macrophage markers (LSD1p, CCR7 and CD38); assay: Expression of M1 macrophage markers in MDA-MB-231 xenograft cells (confocal microscopy, TNFI/TCFI); format: in vivo, Balb-c nude mice; settings: importinib4759 40 mg/kg, docetaxel 4 mg/kg
# Description: as §1
# PKC-θ [4] = molecular target: T1, PKC-θ (Homo sapiens, UniProt Q04759); assay: Nuclear localization of PKC-θ (PKC-θ-phosphor-T538 antibody) in MCF7 cells treated with peptide inhibitors of other PKC isoforms; format: cell-based; settings: 50 μM peptide inhibitor 24 hr, PMA 0.65 ng/mL 60 hr, N-myristoylated
# T1 construct: endogenous in cells; host or cells: MCF7
# Description: nPKC-β1, nPKC-ε and nPKC-δ peptide inhibitors were designed based on the nuclear localization signal of PKC-β1, PKC-ε and PKC-δ respectively. These peptides were synthesized and N-myristoylated using the method of Example 1.
# MCF7 cells were pre-seeded overnight on sterile coverslips in 12 well plates with 1 mL of completed DMEM before inhibiting with 50 μM of nPKC-β1, nPKC-ε or nPKC-δ peptide inhibitor respectively for 24 hr. Inhibitors were not removed when MCF7 cells were stimulated with 0.65 ng/mL of PMA for 60 hr. DEPC-water was used for control (test peptides were dissolved in sterile DEPC-water). After washing with DPBS twice, samples on coverslips were fixed with 4% paraformaldehyde for 10 minutes and stained with PKC-θ-phosphor-T538 primary Antibody and conjugated Alexa-488 secondary Antibody. Cell nucleus was stained with anti-fade DAPI. When samples were dried overnight, Nikon fluorescence microscopy was used to take photos. ImageJ software was used for densimetric analysis. Fn/c was calculated using the formula: Fn/c=(nuclear density-background density)/(cytoplasmic density-background density).
# PKC-θ [5] = molecular target: T1, PKC-θ; assay: Nuclear translocation of PKC-θ in PMA-stimulated MCF7 cells (immunofluorescence, Fn/c); format: cell-based; settings: 50 μM peptide 24 hr, then PMA 0.65 ng/mL 60 hr, N-myristoylated peptides, p<0.0001 relative to control
# Description: MCF7 cells were pre-seeded overnight on sterile coverslips in 12 well plates with 1 mL of completed Dulbecco's modified eagle medium (DMEM) before incubating with 50 μM of importinib4759 (synthesized in accordance with Example 1) and importinib4759_O1 (synthesized in accordance with Example 1) for 24 hr. Test peptides were not removed when MCF7 cells were stimulated with 0.65 ng/mL of phorbol 12-myristate 13-acetate (PMA) for 60 hr. Diethylpyrocarbonate (DEPC)-water was used for control (test peptides were dissolved in sterile DEPC-water). After wash with Dulbecco's phosphate buffered saline (DPBS) twice, samples on coverslips were fixed with 4% paraformaldehyde for 10 minutes and stained with PKC-θ (Cat. SC-212), PKC-θ-Phosphor-T538, PKC-β2, PKC-α, Importin α, or Importin 8 primary Antibody respectively and conjugated Alexa-488 secondary Antibody. Cell nucleus was stained with anti-fade 2-(4-amidinophenyl)-6-indolecarbamidine dihydrochloride (DAPI). When samples were dried overnight, Nikon fluorescence microscopy was used to take photos. ImageJ software was used for densimetric analysis. Fn/c was calculated using the formula: Fn/c=(nuclear density-background density)/(cytoplasmic density-background density).
# MCF7 cells = assay: CD44hiCD24lo cancer stem cell formation in MCF-IM model (FACS); format: cell-based, human; settings: importinib4759 5004 and 100 μM, importinib4759_O1 2504 and 50 μM, 24 hr before PMA 60 hr, p=0.0079 relative to control
# Description: (§2) 5×10^4 MCF7 cells were seeded with 1 mL of complete DMEM in 12 well plates overnight, then importinib4759 (5004 and 100 μM; synthesized in accordance with Example 1) or importinib4759_O1 (2504 and 50 μM; synthesized in accordance with Example 1) were used to treat cells for 24 hr before stimulation with PMA for 60 hr. Samples were harvested by trypsinization followed by washing with DPBS containing 2% heat inactivated foetal bovine serum (HI-FBS). FACS staining were performed using anti-human CD44-APC, anti-human CD24-PE, Hoechst, and anti-human EpCAM antibody cocktails. Data was collected from BD FACSLSR-II flow cytometer. Treestar FlowJo was used for data analysis.
# MDA-MB-231 cells = assay: CD44hiCD24lo cancer stem cells in MDA-MB-231 model (FACS); format: cell-based, human; settings: 50 μM or 100 μM importinib4759, 48 hr, p<0.0001 relative to control
# Description: as §2, with “5×10^4 MDA-MB-231” for “5×10^4 MCF7”, “for 48” for “for 24”, “before samples” for “before stimulation with PMA for 60 hr. Samples”, “2% HI-FBS.” for “2% heat inactivated foetal bovine serum (HI-FBS).”, “staining was” for “staining were”
# MDA-MB-231 xenograft = assay: Balb/c-nude MDA-MB-231 xenograft breast cancer model: tumor volume and cancer stem cell proportion; format: in vivo, balb/c-nude mice
# Description: A Balb/c-nude MDA-MB-231 xenograft breast cancer model was utilized to determine the effect of the importinib peptides alone and in combination with the chemotherapeutic, docetaxel in comparison to a randomized peptide control.
# Five week old balb/c-nude mice (n=5 per test compound) were injected with MDA-MB-231 human breast carcinoma cell suspensions (2×10^6 cells in 25 μL PBS mixed with 25 μL of BD Matrigel Matrix) subcutaneously into the right mammary gland. Test compounds in a saline vehicle [4 mg/kg docetaxel; 8 mg/kg, 40 mg/kg and 60 mg/kg importinib4759 or importinib4759_O1 (synthesized in accordance with Example 1); 4 mg/kg docetaxel with 8 mg/kg importinib4759 or importinib4759_O1; 4 mg/kg docetaxel with 40 mg/kg importinib4759 or importinib4759_O1; 4 mg/kg docetaxel with 60 mg/kg importinib4759 or importinib4759_O1; or randomized peptide control] were injected intraperitoneally. Tumor volume was assessed using calipers daily over a period of five weeks following treatment. Animals were sacrificed after the five week period. Tumor grafts were removed using resection and processed into single cell suspensions. The percentage of cancer stem cells was determined using FACS analysis. FACS staining was performed using anti-human CD44-APC, anti-human CD24-PE, Hoechst, and anti-human EpCAM antibody cocktails. Data was collected from BD FACSLSR-II flow cytometer. Treestar FlowJo was used for data analysis. Significance was determined using a one-way ANOVA or Mann-Whitney T-test.
# T1 sequence (Q04759 whole entry, canonical isoform): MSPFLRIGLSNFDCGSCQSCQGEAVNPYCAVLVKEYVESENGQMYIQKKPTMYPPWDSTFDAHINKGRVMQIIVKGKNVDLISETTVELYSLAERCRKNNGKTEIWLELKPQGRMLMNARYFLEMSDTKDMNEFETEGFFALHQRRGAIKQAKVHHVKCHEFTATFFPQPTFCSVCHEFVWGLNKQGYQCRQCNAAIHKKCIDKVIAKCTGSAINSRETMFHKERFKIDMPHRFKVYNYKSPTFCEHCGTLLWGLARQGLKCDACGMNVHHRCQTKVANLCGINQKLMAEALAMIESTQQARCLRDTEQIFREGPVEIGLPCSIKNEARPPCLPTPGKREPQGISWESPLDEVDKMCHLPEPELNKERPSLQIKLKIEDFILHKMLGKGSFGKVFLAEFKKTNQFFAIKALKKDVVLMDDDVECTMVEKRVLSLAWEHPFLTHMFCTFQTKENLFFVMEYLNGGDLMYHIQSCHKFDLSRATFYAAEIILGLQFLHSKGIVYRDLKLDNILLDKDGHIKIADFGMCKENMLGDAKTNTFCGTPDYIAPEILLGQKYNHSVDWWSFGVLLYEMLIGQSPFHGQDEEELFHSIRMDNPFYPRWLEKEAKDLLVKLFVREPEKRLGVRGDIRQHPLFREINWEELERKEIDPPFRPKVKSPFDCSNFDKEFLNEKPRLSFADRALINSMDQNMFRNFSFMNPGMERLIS
Molecule,effect on nuclear localization of PKC-θ (PKC-θ [4]),"expression of cancer stem cell markers (CSV, LSD1p, PKC-θ, PDL1) [1]","expression of CAF markers (FAP, LSD1np, CCL2) [2]","expression of M1 macrophage markers (LSD1p, CCR7, CD38; docetaxel result stated for CCR7 and CD38) [3]",other results
"CC(=O)O[C@@]12CO[C@@H]1C[C@H](O)[C@@]1(C)C(=O)[C@H](O)C3=C(C)[C@@H](OC(=O)[C@H](O)[C@@H](NC(=O)OC(C)(C)C)c4ccccc4)C[C@@](O)([C@@H](OC(=O)c4ccccc4)[C@H]21)C3(C)C [docetaxel, reference compound]",–,increased expression of cancer stem cell markers,significantly increased the expression of CAF markers,unaffected,–
"RKEIDPPFRPKVK-OH (Myristoyl-RKEIDPPFRPKVK-OH; SMILES CCCCCCCCCCCCCC(=O)N[C@@H](CCCNC(=N)N)C(=O)N[C@@H](CCCCN)C(=O)N[C@@H](CCC(=O)O)C(=O)N[C@H](C(=O)N[C@@H](CC(=O)O)C(=O)N1CCC[C@H]1C(=O)N1CCC[C@H]1C(=O)N[C@@H](Cc1ccccc1)C(=O)N[C@@H](CCCNC(=N)N)C(=O)N1CCC[C@H]1C(=O)N[C@@H](CCCCN)C(=O)N[C@H](C(=O)N[C@@H](CCCCN)C(=O)O)C(C)C)[C@@H](C)CC) [Importinib4759, tested N-myristoylated]",–,significantly abrogated expression of cancer stem cell markers,abrogated expression of CAF markers,augmented,"blocking of nuclear PKC-θ (nuclear translocation) (PKC-θ [5]): capable of blocking nuclear PKC-θ; cancer stem cell (CD44hiCD24lo) formation (MCF7 cells): inhibited; reduction of CD44hiCD24lo cancer stem cells (MDA-MB-231 cells): Significant reduction of cancer stem cells; cancer stem cell (CD44highCD24low) population in tumor grafts (MDA-MB-231 xenograft; FACS of resected tumor grafts after five weeks): significantly abrogating the cancer stem cell population; tumor volume in comparison to the control or docetaxel treatment alone (MDA-MB-231 xenograft; intraperitoneal, peptide 8, 40 and 60 mg/kg, docetaxel 4 mg/kg, five weeks): abrogating tumor volume; tumor volume over time (MDA-MB-231 xenograft; intraperitoneal, peptide 8, 40 and 60 mg/kg, docetaxel 4 mg/kg, five weeks, n=5): significantly reduced tumor volume over time"
RKEIQPPYKPKAR (Myristoyl-RKEIQPPYKPKAR) [nPKC-β1],had no effect,–,–,–,–

# The next lines start with results.
effect on nuclear localization of PKC-θ (PKC-θ [4]),Molecule,"expression of cancer stem cell markers (CSV, LSD1p, PKC-θ, PDL1) [1]","expression of CAF markers (FAP, LSD1np, CCL2) [2]","expression of M1 macrophage markers (LSD1p, CCR7, CD38; docetaxel result stated for CCR7 and CD38) [3]",other results
had no effect,KKIKPPFKPRIKTKR (Myristoyl-KKIKPPFKPRIKTKR) [nPKC-ε],–,–,–,–
had no effect,KRRLEPPFRPKVK [nPKC-δ],–,–,–,–
